This is an account of results in patent US20260085053A1, “BENZOFURAN DERIVATIVES AS SIK INHIBITORS AND THE USE THEREOF” (BEONE MEDICINES I GMBH, priority 2023, published 2026).

Assay [1] has as its target T1, SIK2 kinase (full length, Thermo Fisher) (Homo sapiens, UniProt Q9H0K1).
T1 construct: SIK2 kinase (full length, Thermo Fisher); purchased Thermo Fisher
Briefly: Biochemical activities determination for SIK2 protein (TR-FRET). The settings on record: 80 uM ATP, 0.5 μM substrate. The method in brief: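 Full-length SIK2 preincubated 60 min with 0–10 μM compound, then reacted 180 min at room temperature with 80 uM ATP and 0.5 μM biotinylated substrate (pH 7.5 Tris/MgCl2 buffer). Phosphorylation detected by TR-FRET (665/620 nm ratio, cryptate antibody/streptavidin-XL665) after overnight incubation; IC50 from four-parameter logistic fit.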

Assay [2] deals with T2, SIK3 kinase (aa59-365, Thermo Fisher) (Homo sapiens, UniProt Q9Y2K2).
T2 construct: SIK3 kinase (aa59-365, Thermo Fisher); purchased Thermo Fisher
T2 sequence (Q9Y2K2 59-365): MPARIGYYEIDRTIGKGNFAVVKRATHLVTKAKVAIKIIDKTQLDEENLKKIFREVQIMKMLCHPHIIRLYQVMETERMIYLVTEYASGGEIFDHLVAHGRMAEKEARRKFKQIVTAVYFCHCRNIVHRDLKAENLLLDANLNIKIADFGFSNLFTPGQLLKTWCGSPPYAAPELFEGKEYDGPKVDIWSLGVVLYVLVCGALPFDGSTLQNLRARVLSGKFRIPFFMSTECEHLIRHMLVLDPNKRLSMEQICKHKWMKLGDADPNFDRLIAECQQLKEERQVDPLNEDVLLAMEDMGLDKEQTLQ
Briefly: Biochemical activities determination for SIK3 protein (TR-FRET). The settings on record: 125 uM ATP, 0.5 μM STK1 substrate. Summed up:
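SIK3 (aa59-365) was preincubated with compound (0-10 μM) for 60 min at room temperature in Tris buffer pH 7.5. The reaction was then started with 125 uM ATP and 0.5 μM STK1 substrate and run 180 min at room temperature. Phospho-substrate was detected by HTRF (665/620 nm ratio), and IC50 came from a four-parameter logistic fit.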

For assay [3], the target named is T3, SIK1 kinase (aa1-303, Thermo Fisher) (Homo sapiens, UniProt P57059).
T3 construct: SIK1 kinase (aa1-303, Thermo Fisher); purchased Thermo Fisher
T3 sequence (P57059 1-303): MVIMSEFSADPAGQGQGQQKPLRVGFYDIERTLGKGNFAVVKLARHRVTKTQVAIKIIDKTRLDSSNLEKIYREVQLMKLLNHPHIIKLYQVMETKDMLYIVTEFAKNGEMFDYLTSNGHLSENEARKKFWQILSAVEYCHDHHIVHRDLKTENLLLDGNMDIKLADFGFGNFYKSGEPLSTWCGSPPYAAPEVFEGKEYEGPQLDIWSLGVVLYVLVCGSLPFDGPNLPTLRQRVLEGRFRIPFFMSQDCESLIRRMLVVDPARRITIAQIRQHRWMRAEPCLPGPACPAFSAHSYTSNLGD
Briefly: Biochemical activities determination for SIK1 protein (TR-FRET). The settings on record: 110 uM ATP, 0.5 μM STK1 substrate. Summed up: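 TR-FRET kinase assay with SIK1 (aa1-303), 110 uM ATP, 0.5 μM STK1 substrate and 0-10 μM compound in Tris pH 7.5 with MgCl2, EGTA, DTT, Triton X-100. Enzyme preincubated with compound 60 min, reaction 180 min at room temperature; 665/620 nm ratio after overnight detection; IC50 from four-parameter logistic fit.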
(In general: TR-FRET usually uses a lanthanide donor and a delayed reading to cut background.)

Structures are written as SMILES. Bounds are passed on as bounds.

T1 sequence (Q9H0K1 whole entry): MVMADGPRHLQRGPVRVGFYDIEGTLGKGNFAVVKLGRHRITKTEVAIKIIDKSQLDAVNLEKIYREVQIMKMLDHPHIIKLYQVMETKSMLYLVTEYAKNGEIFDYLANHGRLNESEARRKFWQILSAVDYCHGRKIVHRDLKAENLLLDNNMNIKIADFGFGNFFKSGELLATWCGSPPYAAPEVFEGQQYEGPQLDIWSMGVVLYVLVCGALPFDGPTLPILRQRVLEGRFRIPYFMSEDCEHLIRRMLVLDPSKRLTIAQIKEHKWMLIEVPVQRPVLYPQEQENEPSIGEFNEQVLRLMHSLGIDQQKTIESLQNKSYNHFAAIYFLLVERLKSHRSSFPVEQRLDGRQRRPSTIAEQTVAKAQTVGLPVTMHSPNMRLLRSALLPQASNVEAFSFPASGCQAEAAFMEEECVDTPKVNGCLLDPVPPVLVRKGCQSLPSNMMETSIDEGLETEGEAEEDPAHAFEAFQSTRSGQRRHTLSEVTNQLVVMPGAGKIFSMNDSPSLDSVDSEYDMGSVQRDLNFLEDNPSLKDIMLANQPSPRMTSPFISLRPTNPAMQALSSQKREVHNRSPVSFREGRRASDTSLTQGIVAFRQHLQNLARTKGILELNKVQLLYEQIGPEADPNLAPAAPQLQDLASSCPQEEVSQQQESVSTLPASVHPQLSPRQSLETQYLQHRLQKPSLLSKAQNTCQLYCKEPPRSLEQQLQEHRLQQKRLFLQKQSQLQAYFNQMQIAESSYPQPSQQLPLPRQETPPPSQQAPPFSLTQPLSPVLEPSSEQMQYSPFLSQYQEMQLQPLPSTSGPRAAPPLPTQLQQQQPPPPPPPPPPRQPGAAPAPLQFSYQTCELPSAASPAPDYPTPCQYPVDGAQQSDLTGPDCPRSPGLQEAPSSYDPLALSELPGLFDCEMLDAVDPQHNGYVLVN

One may read the IC50 as the concentration that gives 50% inhibition. Read a low IC50 as inhibition by little substance. Consider `COc1cc(-c2coc3cc(-c4cnn(C5CN(CCC#N)C5)c4)ccc23)cc2c1C(=O)N(CC(F)(F)F)CC2` [Compound 54, 3-(3-(4-(3-(8-methoxy-1-oxo-2-(2,2,2-trifluoroethyl)-1,2,3,4-tetrahydroisoquinolin-6-yl)benzofuran-6-yl)-1H-pyrazol-1-yl)azetidin-1-yl) propanenitrile], for which the IC50 in assay [1] was 6.9 nM; in assay [2] it was 19 nM; in assay [3] it was 326 nM.
Take `CN1CCC(n2cc(-c3ccc4c(-c5cc6c(c(OC(F)F)c5)C(=O)N(CC#N)CC6)coc4c3)cn2)CC1` [Compound 55, 2-(8-(difluoromethoxy)-6-(6-(1-(1-methylpiperidin-4-yl)-1H-pyrazol-4-yl)benzofuran-3-yl)-1-oxo-3,4-dihydroisoquinolin-2 (1H)-yl) acetonitrile]: the values for the IC50 in assay [1], in assay [2] and in assay [3] were 3.9 nM, 18 nM and 301 nM, respectively.
As to `CN1CCC(n2cc(-c3ccc4c(-c5cc6c(c(OC(F)F)c5)C(=O)N(CC#N)CC6)coc4c3)cn2)C1` (stereo not drawn) [Compound 56, 2-(8-(difluoromethoxy)-6-(6-(1-(1-methylpyrrolidin-3-yl)-1H-pyrazol-4-yl)benzofuran-3-yl)-1-oxo-3,4-dihydroisoquinolin-2 (1H)-yl) acetonitrile], the IC50 worked out at 2.6 nM in assay [1], 15 nM in assay [2] and 315 nM in assay [3].
The matching figures for `CN1CC(n2cc(-c3ccc4c(-c5cc6c(c(OC(F)F)c5)C(=O)N(CC#N)CC6)coc4c3)cn2)C1` [Compound 57, 2-(8-(difluoromethoxy)-6-(6-(1-(1-methylazetidin-3-yl)-1H-pyrazol-4-yl)benzofuran-3-yl)-1-oxo-3,4-dihydroisoquinolin-2 (1H)-yl) acetonitrile]: 2.7 nM, 17 nM and 405 nM.
Taken in the same sequence, the figures for `COc1cc(-c2coc3cc(OCCN4CCOCC4)ccc23)cc2c1C(=O)N(CC(F)(F)F)CC2` [Compound 58, 8-methoxy-6-(6-(2-morpholinoethoxy)benzofuran-3-yl)-2-(2,2,2-trifluoroethyl)-3,4-dihydroisoquinolin-1 (2H)-one] were 167 nM, 391 nM and greater than 10000 nM.
The matching figures for `COc1cc(-c2coc3cc(OCCN4CCCC4)ccc23)cc2c1C(=O)N(CC(F)(F)F)CC2` [Compound 59, 8-methoxy-6-(6-(2-(pyrrolidin-1-yl)ethoxy)benzofuran-3-yl)-2-(2,2,2-trifluoroethyl)-3,4-dihydroisoquinolin-1 (2H)-one]: 77 nM, 348 nM and greater than 10000 nM.
On to `COc1cc(-c2coc3cc(OCc4cncn4C)ccc23)cc2c1C(=O)N(CC(F)(F)F)CC2` [Compound 60, 8-methoxy-6-(6-((1-methyl-1H-imidazol-5-yl)methoxy)benzofuran-3-yl)-2-(2,2,2-trifluoroethyl)-3,4-dihydroisoquinolin-1 (2H)-one], for which the IC50 in assay [1] was 635 nM; in assay [2], 421 nM; in assay [3], greater than 10000 nM.
As to `COc1cc(-c2coc3cc(OCC4CCCN4C)ccc23)cc2c1C(=O)N(CC(F)(F)F)CC2` (stereo not drawn) [Compound 61, 8-methoxy-6-(6-((1-methylpyrrolidin-2-yl)methoxy)benzofuran-3-yl)-2-(2,2,2-trifluoroethyl)-3,4-dihydroisoquinolin-1 (2H)-one], the IC50 in assay [1] is 147 nM; in assay [2], 322 nM; in assay [3], greater than 10000 nM.
The matching figures for `COc1cc(-c2coc3cc(OCCN4CCCC4)ccc23)cc(OC(F)F)c1C(=O)NC1CC1` [Compound 62, N-cyclopropyl-2-(difluoromethoxy)-6-methoxy-4-(6-(2-(pyrrolidin-1-yl)ethoxy)benzofuran-3-yl)benzamide]: 76 nM, 122 nM and greater than 10000 nM.
Taken in the same sequence, the figures for `O=C1c2c(cc(-c3coc4cc(OCCN5CCCC5)ccc34)cc2OC(F)F)CCN1CC(F)(F)F` [Compound 63, 8-(difluoromethoxy)-6-(6-(2-(pyrrolidin-1-yl)ethoxy)benzofuran-3-yl)-2-(2,2,2-trifluoroethyl)-3,4-dihydroisoquinolin-1 (2H)-one] were 67 nM, 300 nM and greater than 10000 nM.
The matching figures for `COc1cc(-c2coc3cc(OCCN4CCCCC4)ccc23)cc2c1C(=O)N(CC(F)(F)F)CC2` [Compound 64, 8-methoxy-6-(6-(2-(piperidin-1-yl)ethoxy)benzofuran-3-yl)-2-(2,2,2-trifluoroethyl)-3,4-dihydroisoquinolin-1 (2H)-one]: 73 nM, 415 nM and greater than 10000 nM.
Consider `COc1cc(-c2coc3cc(OCCN4CCCC4)ccc23)cc2c1C(=O)N(CC#N)CC2` [Compound 65, 2-(8-methoxy-1-oxo-6-(6-(2-(pyrrolidin-1-yl)ethoxy)benzofuran-3-yl)-3,4-dihydroisoquinolin-2 (1H)-yl) acetonitrile], for which the values for the IC50 in assay [1], in assay [2] and in assay [3] were 103 nM, 313 nM and greater than 10000 nM, respectively.
Taken in the same sequence, the figures for `COc1cc(-c2coc3cc(OCCN4CCCC4)ccc23)cc(OC(F)F)c1C(=O)NCC#N` [Compound 66, N-(cyanomethyl)-2-(difluoromethoxy)-6-methoxy-4-(6-(2-(pyrrolidin-1-yl)ethoxy)benzofuran-3-yl)benzamide] were 58 nM, 132 nM and 6690 nM.
`COc1cc(-c2coc3cc(OCCN4CCCC4)ccc23)cc(OC(F)F)c1C(=O)N[C@@H]1C[C@@H]1F` [Compound 67, 2-(difluoromethoxy)-N-((1R,2S)-2-fluorocyclopropyl)-6-methoxy-4-(6-(2-(pyrrolidin-1-yl)ethoxy)benzofuran-3-yl)benzamide]: the IC50 in assay [1] is 23 nM; in assay [2] it was 79 nM; in assay [3], 2450 nM.
Taken in the same sequence, the figures for `COc1cc(-c2coc3cc(OC(C)CN4CCCC4)ccc23)cc(OC(F)F)c1C(=O)N[C@@H]1C[C@@H]1F` (stereo partly drawn) [Compound 68, 2-(difluoromethoxy)-N-((1R,2S)-2-fluorocyclopropyl)-6-methoxy-4-(6-((1-(pyrrolidin-1-yl)propan-2-yl)oxy)benzofuran-3-yl)benzamide] were 90 nM, 139 nM and 8180 nM.
With `COc1cc(-c2coc3cc(OCCN4CCOCC4)ccc23)cc(OC(F)F)c1C(=O)N[C@@H]1C[C@@H]1F` [Compound 69, 2-(difluoromethoxy)-N-((1R,2S)-2-fluorocyclopropyl)-6-methoxy-4-(6-(2-morpholinoethoxy)benzofuran-3-yl)benzamide], the IC50 in assay [1] worked out at 41 nM; in assay [2], 45 nM; in assay [3], 1270 nM.
The matching figures for `COc1cc(-c2coc3cc(OCCN4CCCCC4)ccc23)cc(OC(F)F)c1C(=O)N[C@@H]1C[C@@H]1F` [Compound 70, 2-(difluoromethoxy)-N-((1R,2S)-2-fluorocyclopropyl)-6-methoxy-4-(6-(2-(piperidin-1-yl)ethoxy)benzofuran-3-yl)benzamide]: 14 nM, 42 nM and 2950 nM.
